{
  "source": "the NIST ThermoML archive (doi:10.1016/j.jct.2015.08.031)",
  "settings": "101.33 kPa, Crystal, relaxation calorimeter",
  "note": "± gives the expanded uncertainty stated by the source.",
  "data": [
    {"smiles": "O[C@H]1[C@H](O)[C@H](O)OC[C@H]1O", "note": "[β-D-arabinopyranose]", "values": [
      {"measurement": "molar entropy", "setting": "0.5 K", "result": "0.0007089 ± 8.4e-05", "unit": "J/K/mol"},
      {"measurement": "molar entropy", "setting": "1 K", "result": "0.001551 ± 0.00017", "unit": "J/K/mol"},
      {"measurement": "molar entropy", "setting": "1.5 K", "result": "0.002666 ± 0.00028", "unit": "J/K/mol"},
      {"measurement": "molar entropy", "setting": "2 K", "result": "0.004203 ± 0.00045", "unit": "J/K/mol"},
      {"measurement": "molar entropy", "setting": "2.5 K", "result": "0.006327 ± 0.00067", "unit": "J/K/mol"},
      {"measurement": "molar entropy", "setting": "3 K", "result": "0.009226 ± 0.00097", "unit": "J/K/mol"},
      {"measurement": "molar entropy", "setting": "3.5 K", "result": "0.01311 ± 0.0014", "unit": "J/K/mol"},
      {"measurement": "molar entropy", "setting": "4 K", "result": "0.01824 ± 0.0019", "unit": "J/K/mol"},
      {"measurement": "molar entropy", "setting": "4.5 K", "result": "0.02488 ± 0.0026", "unit": "J/K/mol"},
      {"measurement": "molar entropy", "setting": "5 K", "result": "0.03336 ± 0.0035", "unit": "J/K/mol"},
      {"measurement": "molar entropy", "setting": "5.5 K", "result": "0.04406 ± 0.0046", "unit": "J/K/mol"},
      {"measurement": "molar entropy", "setting": "6 K", "result": "0.0574 ± 0.006", "unit": "J/K/mol"},
      {"measurement": "molar entropy", "setting": "6.5 K", "result": "0.07383 ± 0.0077", "unit": "J/K/mol"},
      {"measurement": "molar entropy", "setting": "7 K", "result": "0.09385 ± 0.0098", "unit": "J/K/mol"},
      {"measurement": "molar entropy", "setting": "7.5 K", "result": "0.118 ± 0.012", "unit": "J/K/mol"},
      {"measurement": "molar entropy", "setting": "8 K", "result": "0.1468 ± 0.015", "unit": "J/K/mol"},
      {"measurement": "molar entropy", "setting": "8.5 K", "result": "0.1809 ± 0.019", "unit": "J/K/mol"},
      {"measurement": "molar entropy", "setting": "9 K", "result": "0.2206 ± 0.023", "unit": "J/K/mol"},
      {"measurement": "molar entropy", "setting": "9.5 K", "result": "0.2662 ± 0.028", "unit": "J/K/mol"},
      {"measurement": "molar entropy", "setting": "10 K", "result": "0.3182 ± 0.033", "unit": "J/K/mol"},
      {"measurement": "molar entropy", "setting": "11 K", "result": "0.4423 ± 0.046", "unit": "J/K/mol"},
      {"measurement": "molar entropy", "setting": "12 K", "result": "0.5944 ± 0.062", "unit": "J/K/mol"},
      {"measurement": "molar entropy", "setting": "13 K", "result": "0.7758 ± 0.081", "unit": "J/K/mol"},
      {"measurement": "molar entropy", "setting": "14 K", "result": "0.9866 ± 0.1", "unit": "J/K/mol"},
      {"measurement": "molar entropy", "setting": "15 K", "result": "1.227 ± 0.13", "unit": "J/K/mol"},
      {"measurement": "molar entropy", "setting": "16 K", "result": "1.496 ± 0.16", "unit": "J/K/mol"},
      {"measurement": "molar entropy", "setting": "17 K", "result": "1.793 ± 0.19", "unit": "J/K/mol"},
      {"measurement": "molar entropy", "setting": "18 K", "result": "2.116 ± 0.22", "unit": "J/K/mol"},
      {"measurement": "molar entropy", "setting": "19 K", "result": "2.466 ± 0.26", "unit": "J/K/mol"},
      {"measurement": "molar entropy", "setting": "20 K", "result": "2.839 ± 0.3", "unit": "J/K/mol"},
      {"measurement": "molar entropy", "setting": "25 K", "result": "5.013 ± 0.31", "unit": "J/K/mol"},
      {"measurement": "molar entropy", "setting": "30 K", "result": "7.582 ± 0.46", "unit": "J/K/mol"},
      {"measurement": "molar entropy", "setting": "35 K", "result": "10.43 ± 0.64", "unit": "J/K/mol"},
      {"measurement": "molar entropy", "setting": "40 K", "result": "13.47 ± 0.82", "unit": "J/K/mol"},
      {"measurement": "molar entropy", "setting": "45 K", "result": "16.66 ± 1", "unit": "J/K/mol"},
      {"measurement": "molar entropy", "setting": "50 K", "result": "19.95 ± 1.2", "unit": "J/K/mol"},
      {"measurement": "molar entropy", "setting": "55 K", "result": "23.28 ± 1.4", "unit": "J/K/mol"},
      {"measurement": "molar entropy", "setting": "60 K", "result": "26.64 ± 1.6", "unit": "J/K/mol"},
      {"measurement": "molar entropy", "setting": "65 K", "result": "30 ± 1.8", "unit": "J/K/mol"},
      {"measurement": "molar entropy", "setting": "70 K", "result": "33.38 ± 2", "unit": "J/K/mol"},
      {"measurement": "molar entropy", "setting": "75 K", "result": "36.77 ± 2.2", "unit": "J/K/mol"},
      {"measurement": "molar entropy", "setting": "80 K", "result": "40.16 ± 2.4", "unit": "J/K/mol"},
      {"measurement": "molar entropy", "setting": "85 K", "result": "43.54 ± 2.7", "unit": "J/K/mol"},
      {"measurement": "molar entropy", "setting": "90 K", "result": "46.93 ± 2.9", "unit": "J/K/mol"},
      {"measurement": "molar entropy", "setting": "95 K", "result": "50.31 ± 3.1", "unit": "J/K/mol"},
      {"measurement": "molar entropy", "setting": "100 K", "result": "53.68 ± 3.3", "unit": "J/K/mol"},
      {"measurement": "molar entropy", "setting": "110 K", "result": "60.41 ± 3.7", "unit": "J/K/mol"},
      {"measurement": "molar entropy", "setting": "120 K", "result": "67.11 ± 4.1", "unit": "J/K/mol"},
      {"measurement": "molar entropy", "setting": "130 K", "result": "73.78 ± 4.5", "unit": "J/K/mol"},
      {"measurement": "molar entropy", "setting": "140 K", "result": "80.41 ± 4.9", "unit": "J/K/mol"},
      {"measurement": "molar entropy", "setting": "150 K", "result": "87.01 ± 5.3", "unit": "J/K/mol"},
      {"measurement": "molar entropy", "setting": "160 K", "result": "93.58 ± 5.7", "unit": "J/K/mol"},
      {"measurement": "molar entropy", "setting": "170 K", "result": "100.12 ± 6.1", "unit": "J/K/mol"},
      {"measurement": "molar entropy", "setting": "180 K", "result": "106.62 ± 6.5", "unit": "J/K/mol"},
      {"measurement": "molar entropy", "setting": "190 K", "result": "113.1 ± 6.9", "unit": "J/K/mol"},
      {"measurement": "molar entropy", "setting": "200 K", "result": "119.55 ± 7.3", "unit": "J/K/mol"},
      {"measurement": "molar entropy", "setting": "210 K", "result": "125.98 ± 7.7", "unit": "J/K/mol"},
      {"measurement": "molar entropy", "setting": "220 K", "result": "132.38 ± 8.1", "unit": "J/K/mol"},
      {"measurement": "molar entropy", "setting": "230 K", "result": "138.76 ± 8.4", "unit": "J/K/mol"},
      {"measurement": "molar entropy", "setting": "240 K", "result": "145.12 ± 8.8", "unit": "J/K/mol"},
      {"measurement": "molar entropy", "setting": "250 K", "result": "151.45 ± 9.2", "unit": "J/K/mol"},
      {"measurement": "molar entropy", "setting": "260 K", "result": "157.77 ± 9.6", "unit": "J/K/mol"},
      {"measurement": "molar entropy", "setting": "270 K", "result": "164.07 ± 10", "unit": "J/K/mol"},
      {"measurement": "molar entropy", "setting": "273.15 K", "result": "166.06 ± 10", "unit": "J/K/mol"},
      {"measurement": "molar entropy", "setting": "280 K", "result": "170.36 ± 10", "unit": "J/K/mol"},
      {"measurement": "molar entropy", "setting": "290 K", "result": "176.63 ± 11", "unit": "J/K/mol"},
      {"measurement": "molar entropy", "setting": "298.15 K", "result": "181.72 ± 11", "unit": "J/K/mol"},
      {"measurement": "molar entropy", "setting": "300 K", "result": "182.88 ± 11", "unit": "J/K/mol"}
    ]}
  ]
}
